Assay [1] concerns the target Neuraminidase (Influenza A virus, UniProt B4URF0). The experiment in a line: Inhibition of influenza A virus neuraminidase.
The subject of assay [2] is Influenza A virus. The experiment in a line: Antiviral activity against oseltamivir sensitive wild type Influenza A virus A/Brisbane/59/2007 infected infected in dog MDCK cells assessed as inhibition of viral growth incubated for 4 days by neutral red dye-based assay. In kind it is functional. Particulars: A/Brisbane/59/2007, MDCK, 96 h, time 4 day, read-out: ED50 (the source's name).

A short description of assay [3]: Inhibition of influenza A virus A/Singapore/157 neuraminidase using 2'-(4-methylumbelliferyl)-alpha-D-acetylneuraminic acid as substrate incubated for 10 to 30 mins by fluorescence-based assay.
Assay [4] in a line: Inhibition of influenza B virus B/Victoria/70 neuraminidase using 2'-(4-methylumbelliferyl)-alpha-D-acetylneuraminic acid as substrate incubated for 10 to 30 mins by fluorescence-based assay.
Assay [5] is described as follows: Inhibition of Newcastle disease virus neuraminidase using 4-MUNeu5Ac as substrate assessed as reduction in neuraminidase activity incubated for 15 mins by spectrofluorometric analysis.
Assay [6] is described as follows: Inhibition of influenza A virus A/Anhui/1/2005 H5N1 using MUNANA as substrate preincubated for 45 mins followed by substrate addition by fluorescence based assay.
Assay [7] deals with Neuraminidase (Influenza A virus (A/Puerto Rico/8/1934(H1N1)), UniProt P03468). The experiment in a line: Binding affinity to influenza A virus H1N1 (A/Norway/1758/07) neuraminidase using MUNANA as substrate assessed as inhibition constant.
Sequence of Neuraminidase (Influenza A virus (A/Puerto Rico/8/1934(H1N1)), UniProt P03468) (P03468 whole entry): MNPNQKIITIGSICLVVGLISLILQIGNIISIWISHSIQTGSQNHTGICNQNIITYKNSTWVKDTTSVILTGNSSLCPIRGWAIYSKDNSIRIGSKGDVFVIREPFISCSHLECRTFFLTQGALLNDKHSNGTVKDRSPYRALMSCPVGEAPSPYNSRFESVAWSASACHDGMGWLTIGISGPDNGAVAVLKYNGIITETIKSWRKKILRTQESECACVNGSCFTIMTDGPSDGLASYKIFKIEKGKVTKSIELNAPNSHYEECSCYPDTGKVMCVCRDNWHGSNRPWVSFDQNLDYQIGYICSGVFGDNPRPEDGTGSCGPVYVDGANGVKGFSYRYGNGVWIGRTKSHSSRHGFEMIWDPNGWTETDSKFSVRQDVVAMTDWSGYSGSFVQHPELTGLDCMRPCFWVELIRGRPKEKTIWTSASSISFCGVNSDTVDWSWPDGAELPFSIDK
Assay [8] is described as follows: Inhibition of hPIV-3 Haemagglutinin-neuraminidase infected in human red blood cells incubated for 90 mins by haemagglutination assay. Type of assay: cell-based, RBC. Particulars: Human respirovirus 3, Erythrocyte, 1.5 h.
A short description of assay [9]: Inhibition of influenza A virus H5N1 (A/Anhui/2005) neuraminidase using fluorogenic MUNANA as substrate.
The test system of assay [10] is Influenza A virus. As to the kind of experiment: Antiviral activity against Influenza A virus. Type of assay: functional, organism-based.
The test system of assay [11] is Influenza B virus. The experiment in a line: Antiviral activity against Influenza B virus. In kind it is functional, organism-based.
Assay [12] deals with Neuraminidase (Influenza A virus (A/Memphis/1/1971(H3N2)), UniProt P03471). As to the kind of experiment: Inhibition of influenza A virus H3N2 (A/Moscow/10/99) neuraminidase using MUNANA as substrate preincubated for 30 mins followed by substrate addition by fluorescence-based assay.
Sequence of Neuraminidase (Influenza A virus (A/Memphis/1/1971(H3N2)), UniProt P03471) (P03471 whole entry): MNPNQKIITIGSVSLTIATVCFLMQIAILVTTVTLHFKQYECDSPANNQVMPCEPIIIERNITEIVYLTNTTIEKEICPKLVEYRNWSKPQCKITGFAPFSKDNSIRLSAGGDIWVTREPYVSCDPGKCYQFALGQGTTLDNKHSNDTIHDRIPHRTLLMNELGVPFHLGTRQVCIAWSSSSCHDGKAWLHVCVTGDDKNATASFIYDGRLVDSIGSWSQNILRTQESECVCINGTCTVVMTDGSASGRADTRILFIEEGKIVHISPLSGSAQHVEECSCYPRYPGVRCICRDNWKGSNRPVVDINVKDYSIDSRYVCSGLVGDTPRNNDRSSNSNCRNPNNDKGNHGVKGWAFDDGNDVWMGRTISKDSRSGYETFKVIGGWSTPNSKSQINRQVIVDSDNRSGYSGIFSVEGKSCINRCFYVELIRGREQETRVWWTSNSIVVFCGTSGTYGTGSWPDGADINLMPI
Assay [13] is described as follows: Inhibition of influenza A virus H12N5 A/Duck/Alberta/60/1976 neuraminidase using MUNANA as substrate incubated for 30 mins followed by substrate addition by fluorescence based assay.
A short description of assay [14]: Binding affinity to influenza A virus A/HongKong/156/97 (H5N1) neuraminidase using fluorogenic MUN as substrate assessed as inhibition constant.
Assay [15] in a line: Inhibition of Influenza A virus H7N9 VLP neuraminidase using MUNANA as substrate.
The subject of assay [16] is Influenza A virus. The experiment in a line: Antiviral activity against influenza A virus A/Hong Kong/1/68 (HK1, H3N2) infected in dog MDCK cells assessed as cytopathic effect. Type of assay: functional, organism-based.

Bounds are passed on as bounds.

Sequence of Neuraminidase (B4URF0 whole entry): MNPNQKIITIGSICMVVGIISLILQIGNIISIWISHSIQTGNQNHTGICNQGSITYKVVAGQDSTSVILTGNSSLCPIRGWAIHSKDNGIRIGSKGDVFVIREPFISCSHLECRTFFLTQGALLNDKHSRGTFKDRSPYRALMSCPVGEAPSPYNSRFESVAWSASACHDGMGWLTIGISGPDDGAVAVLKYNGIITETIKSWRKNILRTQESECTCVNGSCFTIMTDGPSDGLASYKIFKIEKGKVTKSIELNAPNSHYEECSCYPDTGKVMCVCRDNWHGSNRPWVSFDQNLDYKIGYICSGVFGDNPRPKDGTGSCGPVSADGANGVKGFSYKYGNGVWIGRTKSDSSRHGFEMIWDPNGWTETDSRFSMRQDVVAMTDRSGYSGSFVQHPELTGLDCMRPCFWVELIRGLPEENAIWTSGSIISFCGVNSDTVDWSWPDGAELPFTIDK

The IC50 is the concentration that gives 50% inhibition. Take `CCO[C@@H]([C@@H]1OC(C(=O)O)=C[C@H](N=C(N)N)[C@H]1NC(C)=O)[C@H](O)CO`: the half-maximal inhibitory concentration (IC50) in [1] is 0.0733 µM.
In [1], `CCCCCCCCO[C@@H]([C@@H]1OC(C(=O)O)=C[C@H](N=C(N)N)[C@H]1NC(C)=O)[C@H](O)CO` came in with an IC50 of 0.0455 µM.
The same measure, in the same setting: the value for `CCCCCO[C@@H]([C@@H]1OC(C(=O)O)=C[C@H](N=C(N)N)[C@H]1NC(C)=O)[C@H](O)CO` was 0.0356 µM.
On the same count and under the same terms, the value for `CCCCCCCCCCCCO[C@@H]([C@@H]1OC(C(=O)O)=C[C@H](N=C(N)N)[C@H]1NC(C)=O)[C@H](O)CO` was 0.0992 µM; that for `CCCO[C@@H]([C@@H]1OC(C(=O)O)=C[C@H](N=C(N)N)[C@H]1NC(C)=O)[C@H](O)CO` was 0.0818 µM.
Turning to `CCC(CC)O[C@@H]1CC(C(=O)O)=C[C@H](N)[C@H]1NC(C)=O`, the EC50 in [2] turned out to be 12 µM.
Consider `CCC(CC)O[C@@H]1CC(C(=O)O)=C[C@H](NC(=N)N)[C@H]1NC(C)=O`, for which the EC50 in [2] was 3.9 µM.
In the case of `CCC(CC)[C@H](NC(C)=O)[C@@H]1C[C@@H](C(=O)O)C[C@H]1N=C(N)N`, the IC50 in assay [3] and in assay [4] was < 0.01 µM in each case.
In turn, `CO[C@@H]([C@@H]1OC(C(=O)O)=C[C@H](NC(=N)N)[C@H]1NC(C)=O)[C@H](O)CO` yielded a half-inhibitory concentration (IC50) in assay [1] of 0.0176 µM.
With `O=C(O)C1=C[C@H](NC(=O)C(F)(F)F)[C@H](NC(=O)C(F)(F)F)[C@H]([C@@H](O)[C@H](O)CO)O1`, the IC50 in [5] came out at 0.03 µM.
In the case of `CCC(CC)O[C@@H]1C2C([C@@H]2C(=O)O)[C@@H](NCc2ccccc2)[C@H]1NC(C)=O` (stereo partly specified), the IC50 in [6] worked out at 10 µM.
By Ki is commonly meant the dissociation constant of the complex between target and ligand, obtained from inhibition or displacement. Take `CCC(CC)O[C@@H]1C=C(P(=O)(O)O[C@H]2[C@@H](O)[C@@H](CO)O[C@@H](OC)[C@@H]2O)C[C@H](N)[C@H]1NC(C)=O`: the Ki in [7] was 0.00029 µM.
Compound `CC(C)C(=O)N[C@H]1[C@H]([C@H](O)[C@H](O)CO)OC(C(=O)O)=C(n2cc(-c3ccccc3C(=O)O)nn2)[C@@H]1O` came in with an IC50 in [8] of 3.9 µM.
In turn, `CCC(CC)O[C@@H]1C=C(C(=O)O)C[C@H](NS(C)(=O)=O)[C@H]1NC(C)=O` came in with a half-inhibitory concentration (IC50) in assay [9] of 3.5 µM.
For the compound `CNC(=N)N[C@H]1C=C(C(=O)O)O[C@@H]([C@H](O)[C@H](O)CO)[C@@H]1NC(C)=O`, the IC50 in [10] and in [11] was 4.59 µM throughout.
`CCC(CC)O[C@@H]1C=C(C(=O)O)C[C@H](n2nncc2-c2cccc(N)c2)[C@H]1NC(C)=O`: the half-inhibitory concentration (IC50) in assay [12] turned out to be 0.019 µM; in assay [13], 0.045 µM.
Consider `CC(=O)N[C@H]1[C@H]([C@H](O)[C@H](O)CO)OC(C(=O)O)=C(C/C=C/c2cccc3ccccc23)[C@@H]1O`, for which the inhibition constant Ki in [14] is 9.3 µM.
In assay [15], `N=C(N)N[C@@H]1[C@@H](NC(=O)C(F)(F)F)[C@H]([C@H](OC(=O)NCCn2cc(COC[C@H]3O[C@@H](O[C@H]4[C@H](OCc5cn(CCNC(=O)O[C@@H]([C@@H]6O[C@@](F)(C(=O)O)[C@H](F)[C@H](NC(=N)N)[C@H]6NC(=O)C(F)(F)F)[C@H](O)CO)nn5)[C@@H](OCc5cnnn5CCNC(=O)O[C@@H]([C@@H]5O[C@@](F)(C(=O)O)[C@H](F)[C@H](NC(=N)N)[C@H]5NC(=O)C(F)(F)F)[C@H](O)CO)[C@H](OCc5cn(CCNC(=O)O[C@@H]([C@@H]6O[C@@](F)(C(=O)O)[C@H](F)[C@H](NC(=N)N)[C@H]6NC(=O)C(F)(F)F)[C@H](O)CO)nn5)O[C@@H]4COCc4cn(CCNC(=O)O[C@@H]([C@@H]5O[C@@](F)(C(=O)O)[C@H](F)[C@H](NC(=N)N)[C@H]5NC(=O)C(F)(F)F)[C@H](O)CO)nn4)[C@H](OCc4cn(CCNC(=O)O[C@@H]([C@@H]5O[C@@](F)(C(=O)O)[C@H](F)[C@H](NC(=N)N)[C@H]5NC(=O)C(F)(F)F)[C@H](O)CO)nn4)[C@@H](OCc4cn(CCNC(=O)O[C@@H]([C@@H]5O[C@@](F)(C(=O)O)[C@H](F)[C@H](NC(=N)N)[C@H]5NC(=O)C(F)(F)F)[C@H](O)CO)nn4)[C@H]3OCc3cn(CCNC(=O)O[C@@H]([C@@H]4O[C@@](F)(C(=O)O)[C@H](F)[C@H](NC(=N)N)[C@H]4NC(=O)C(F)(F)F)[C@H](O)CO)nn3)nn2)[C@H](O)CO)O[C@@](F)(C(=O)O)[C@@H]1F` came in with an IC50 of 0.0306 µM.
In [6], `CCC(CC)O[C@@H]1C2C([C@@H]2C(=O)O)[C@@H](NCc2ccc(-c3ccccc3)cc2)[C@H]1NC(C)=O` (stereo partly specified) yielded an IC50 of 10 µM.
On to `CCOC(=O)NC(=N)N[C@H]1C=C(C(=O)O)O[C@@H]([C@H](O)[C@H](O)CO)[C@@H]1NC(C)=O`, for which the IC50 in [10] and in [11] was 4.59 µM in each case.
As to `CC(=O)N[C@H]1[C@H]([C@H](O)[C@H](O)CO)OC(C(=O)O)=C[C@@H]1NC(=N)NN`, the 50% inhibitory concentration (IC50) in assay [10] and in [11] was 4.59 µM throughout.
Turning to `CC(=O)N[C@H]1[C@H]([C@H](O)[C@H](O)CO)OC(C(=O)O)=C[C@@H]1NC(=N)N[N+](=O)[O-]`, the IC50 in [10] and in assay [11] was 4.59 µM throughout.
For `Cc1ccc(C(=O)N[C@H]2C=C(C(=O)O)O[C@@H]([C@@H](O)[C@H](O)CO)[C@H]2NC(=O)C(F)(F)F)cc1`, in assay [5], the half-maximal inhibitory concentration (IC50) was 0.03 µM.
Consider `CCC(CC)O[C@@H]1C=C(P(=O)(O)OC[C@H]2O[C@@H](OC)[C@H](O)[C@@H](O)[C@H]2O)C[C@H](N)[C@H]1NC(C)=O`, for which the inhibitory constant (Ki) in assay [7] was 0.00074 µM.
For `[N-]=[N+]=N[C@H]1C=C(C(=O)O)O[C@@H]([C@@H](O)[C@H](O)CO)[C@H]1NC(=O)C(F)(F)C(F)(F)C(F)(F)F`, in assay [5], the IC50 is 0.03 µM.
Still for that read-out and setting: next, `[N-]=[N+]=N[C@H]1C=C(C(=O)O)O[C@@H]([C@@H](O)[C@H](O)CO)[C@H]1NC(=O)C(F)(F)F`: 0.03 µM.
As for `CCC(CC)O[C@@H]1C=C(C(=O)O)[C@@H](n2cc(C(O)CC)nn2)[C@H](N)[C@H]1NC(C)=O` (stereo partly specified), in [16], the IC50 is 0.1 µM.
`CC(=O)N[C@H]1[C@H]([C@H](O)[C@H](O)CO)OC(C(=O)O)=C[C@@H]1NC(=N)NO`: the IC50 in [10] and in assay [11] was 4.59 µM throughout.
`CCC(CC)O[C@@H]1C2C([C@@H]2C(=O)O)[C@@H](O)[C@H]1NC(C)=O` (stereo partly specified) registered a 50% inhibitory concentration (IC50) in assay [6] of 10 µM.

Values taken from ChEMBL document CHEMBL5321229, “Conformationally locked sugar derivatives and analogues as potential neuraminidase inhibitors” (Eur J Med Chem, 2023).
